# Test results published in ChEMBL document CHEMBL1158285, “Constituents from the stem wood of Euphorbia quinquecostata with phorbol dibutyrate receptor-binding inhibitory activity” (J Nat Prod, 1996).
# Calls of active or inactive are those of the source. No cut-off for these calls is given here.
# Species: Bos taurus
# Test: (§1) Displacement of [3H]PDBu from PKC in calf brain homogenate
# Assay type: tissue-based
row,Structure (SMILES),Activity
1,COc1cc(OC)c(C(=O)CO)c(O)c1C,inactive

# Molecular target: not listed separately
# Test: as §1
# Assay type: tissue-based, Bos taurus
row,Structure (SMILES),IC50 [µM]
1,CC1(C)[C@H](O)CC[C@]2(C)[C@@H]1CC[C@@]13CC[C@@H](C[C@H]12)[C@](O)(CO)C3,73
2,CCCCCCCCCCCCCCCC(=O)OCC1=C[C@@H]2C(=O)[C@]3(C=C(C)[C@H](O)[C@@]3(O)[C@@H]1O)[C@H](C)C[C@@H]1[C@H]2[C@]1(C)CO,0.023
3,CCCCCCCCCCCCCCCC(=O)OCC1=C[C@@H]2C(=O)[C@]3(C=C(C)[C@H](O)[C@@]3(O)[C@@H]1O)[C@H](C)C[C@@H]1[C@H]2C1(C)C,5.3
4,C=C1C[C@@]23CC[C@@H]4C(C)(C)C(=O)CC[C@@]4(C)[C@@H]2C[C@@H]1[C@H](O)C3=O,> 630
5,CCCCCCCCCCCCCCCC(=O)OCC1=C[C@@H]2C(=O)[C@]3(C=C(C)[C@H](OC(C)=O)[C@@]3(O)[C@@H]1OC(C)=O)[C@H](C)C[C@@H]1[C@H]2[C@]1(C)COC(C)=O,> 275
6,CC1(C)C(=O)CC[C@]2(C)[C@@H]1CC[C@@]13CC[C@@H](C[C@H]12)[C@](O)(CO)C3,66
